The target in the first test is T1, pY705-STAT3 in PBMC (Homo sapiens, UniProt P40763).
T1 construct: Cryopreserved Peripheral Blood Mononuclear Cells (PBMC) are from AllCells; host or cells: cryopreserved PBMC
T1 sequence (P40763 whole entry): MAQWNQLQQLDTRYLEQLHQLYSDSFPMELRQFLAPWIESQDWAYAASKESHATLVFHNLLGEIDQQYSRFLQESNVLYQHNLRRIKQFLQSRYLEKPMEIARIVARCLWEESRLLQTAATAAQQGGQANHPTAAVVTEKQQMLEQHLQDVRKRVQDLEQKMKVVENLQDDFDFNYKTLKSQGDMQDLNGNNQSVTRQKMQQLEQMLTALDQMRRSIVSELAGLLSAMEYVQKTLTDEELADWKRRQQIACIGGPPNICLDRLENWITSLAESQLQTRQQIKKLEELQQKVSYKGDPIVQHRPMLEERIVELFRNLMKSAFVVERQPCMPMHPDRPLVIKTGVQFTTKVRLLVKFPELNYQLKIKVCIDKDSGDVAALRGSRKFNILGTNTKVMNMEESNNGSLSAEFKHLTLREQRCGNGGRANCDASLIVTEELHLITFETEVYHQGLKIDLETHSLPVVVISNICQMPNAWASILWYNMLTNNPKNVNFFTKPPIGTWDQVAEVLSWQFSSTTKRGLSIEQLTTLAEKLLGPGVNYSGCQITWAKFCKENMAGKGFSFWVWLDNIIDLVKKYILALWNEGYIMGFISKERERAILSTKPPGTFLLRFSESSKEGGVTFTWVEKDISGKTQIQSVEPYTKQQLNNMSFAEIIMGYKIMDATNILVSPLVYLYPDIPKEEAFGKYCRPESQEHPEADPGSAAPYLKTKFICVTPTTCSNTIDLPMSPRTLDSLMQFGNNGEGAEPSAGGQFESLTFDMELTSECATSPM
The test can be described thus: MSD-pSTAT-PBMC Assay (pSTAT3, IL-6 stimulated). In kind it is cell-based. As to conditions: PBMC, compound 3 hrs, then 10 ng/mL IL-6 for 10 min; Table 1114; read-out: pSTAT3. The essentials: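 PBMC (human, cryopreserved, overnight recovery) + cpd 3 hrs → IL-6 10 ng/mL (STAT3) or IL-4 1 ng/mL (STAT6) ×10 min → lysis with protease/phosphatase inhibitors → MSD capture/phospho detection. IC50, variable slope, DMSO-normalized.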
Take `CC(C)(C)C(=O)OCOP(=O)(OCOC(=O)C(C)(C)C)C(F)(F)c1ccc2sc(C(=O)N[C@H]3CCCC[C@H]4CC[C@@H](C(=O)N5CC(C#N)C(c6cc[nH]c(=O)c6)C5)N4C3=O)cc2c1` (mixture of isomers) [Compound 147, ((((2-(((3S,6S,10aS)-3-(rel-trans)-3-cyano-4-(2-oxo-1,2-dihydro-pyridin-4-yl)pyrrolidine-1-carbonyl)-5-oxodecahydro-pyrrolo[1,2-a]azocin-6-yl)carbamoyl)benzo[b]thiophen-5-yl)difluoromethyl)phosphoryl)bis (oxy))bis (methylene) bis(2,2-dimethylpropanoate)]: the IC50 fell in the range of 100 to 1000 nM.

The target in the next test is T2, pY641-STAT6 in PBMC (Homo sapiens, UniProt P42226).
T2 construct: Cryopreserved Peripheral Blood Mononuclear Cells (PBMC) are from AllCells; host or cells: cryopreserved PBMC
T2 sequence (P42226 1-847): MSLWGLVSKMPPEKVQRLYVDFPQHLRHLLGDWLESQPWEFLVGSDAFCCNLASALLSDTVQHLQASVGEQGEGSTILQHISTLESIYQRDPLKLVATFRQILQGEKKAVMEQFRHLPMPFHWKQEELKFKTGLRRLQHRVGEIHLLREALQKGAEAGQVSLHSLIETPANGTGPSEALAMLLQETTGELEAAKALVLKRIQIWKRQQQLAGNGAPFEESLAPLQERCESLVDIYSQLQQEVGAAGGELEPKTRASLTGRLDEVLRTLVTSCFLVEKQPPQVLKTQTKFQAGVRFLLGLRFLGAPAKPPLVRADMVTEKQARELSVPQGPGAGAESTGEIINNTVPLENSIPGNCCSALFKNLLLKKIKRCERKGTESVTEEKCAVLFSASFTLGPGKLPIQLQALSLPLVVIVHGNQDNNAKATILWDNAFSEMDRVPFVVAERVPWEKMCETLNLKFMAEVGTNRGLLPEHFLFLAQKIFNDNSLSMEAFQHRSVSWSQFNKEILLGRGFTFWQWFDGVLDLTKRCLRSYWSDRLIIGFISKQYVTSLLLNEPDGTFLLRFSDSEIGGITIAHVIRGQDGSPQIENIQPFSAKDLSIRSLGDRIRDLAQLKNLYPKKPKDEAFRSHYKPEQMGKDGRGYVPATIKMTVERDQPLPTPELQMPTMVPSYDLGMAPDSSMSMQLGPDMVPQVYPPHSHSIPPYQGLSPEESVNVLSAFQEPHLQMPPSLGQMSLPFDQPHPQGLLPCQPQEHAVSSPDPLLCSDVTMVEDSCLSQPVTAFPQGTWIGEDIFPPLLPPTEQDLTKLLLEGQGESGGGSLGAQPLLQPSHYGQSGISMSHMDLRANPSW
The test can be described thus: MSD-pSTAT-PBMC Assay (pSTAT6, IL-4 stimulated). The note with it: PBMC, compound 3 hrs, then 1 ng/mL IL-4 for 10 min; Table 115; read-out: STAT6. In kind it is cell-based. The essentials:
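Cells are preincubated with compound for 3 hrs, then stimulated for 10 min, IL-4 at 1 ng/mL driving STAT6 phosphorylation and IL-6 at 10 ng/mL driving STAT3. Phospho-STAT in lysates is quantified by MSD immunoassay, and IC50 is fitted after subtracting unstimulated wells.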
Turning to “(4-methyl- 112,212,4- triazolidin-3- yl)methyl (((1R)- fluoro(2- (((3S,6S,9aS)-5- oxo-3-((R)-6- (pyridin-3-yl)-4- azaspiro[2.4]heptane- 4- carbonyl)octahydro- 1H-pyrrolo[1,2- a]azepin-6- yl)carbamoyl)-2,3- dihydrobenzo[b] thiophen-5- yl)methyl)(phenoxy) phosphoryl)-L- alaninate [Compound 373]”, the IC50 was more than 3000 nM.

The test is the same for the next values; noted with them: PBMC, compound 3 hrs, then 1 ng/mL IL-4 for 10 min; Table 1114; read-out: pSTAT6.
As to `CC(C)(C)C(=O)OCOP(=O)(OCOC(=O)C(C)(C)C)C(F)(F)c1ccc2sc(C(=O)N[C@H]3CCCC[C@H]4CC[C@@H](C(=O)N5CC(C#N)C(c6cc[nH]c(=O)c6)C5)N4C3=O)cc2c1` (mixture of isomers) [Compound 147, ((((2-(((3S,6S,10aS)-3-(rel-trans)-3-cyano-4-(2-oxo-1,2-dihydro-pyridin-4-yl)pyrrolidine-1-carbonyl)-5-oxodecahydro-pyrrolo[1,2-a]azocin-6-yl)carbamoyl)benzo[b]thiophen-5-yl)difluoromethyl)phosphoryl)bis (oxy))bis (methylene) bis(2,2-dimethylpropanoate)], the IC50 is less than 100 nM.

Staying with this test, now noted: STAT6, PBMC, compound 3 hrs, then 1 ng/mL IL-4 for 10 min; Table 115.
For the compound `CCCOC(=O)[C@H](C)NP(=O)(Oc1ccccc1)[C@@H](F)c1ccc2sc(C(=O)N[C@H]3CC[C@H](N4CCC4)C[C@H]4CC[C@@H](C(=O)N5C[C@@H](c6ccccc6)[C@H](C#N)C56CC6)N4C3=O)cc2c1` (stereo partly drawn) [Compound 489, propyl (((R)-(2-(((3S,6S,9S,10aR)-9-(azetidin-1-yl)-3-((6R,7S)-7-cyano-6-phenyl-4-azaspiro[2.4]heptane-4-carbonyl)-5-oxodecahydropyrrolo [1,2-a]azocin-6-yl)carbamoyl)benzo [b]thiophen-5-yl)fluoromethyl) (phenoxy)phosphoryl)-L-alaninate], the IC50 lay within 100 to 1000 nM.

For the compound `CCCOC(=O)[C@H](C)NP(=O)(Oc1ccccc1)[C@@H](F)c1ccc2sc(C(=O)N[C@H]3CC[C@H](N4CCC4)C[C@H]4CC[C@@H](C(=O)N5C[C@H](c6ccccc6)[C@@H](C#N)C56CC6)N4C3=O)cc2c1` (stereo partly drawn) [Compound 490, propyl (((R)-(2-(((3S,6S,9S,10aR)-9-(azetidin-1-yl)-3-((6S,7R)-7-cyano-6-phenyl-4-azaspiro[2.4]heptane-4-carbonyl)-5-oxodecahydropyrrolo [1,2-a]azocin-6-yl)carbamoyl)benzo [b]thiophen-5-yl)fluoromethyl) (phenoxy)phosphoryl)-L-alaninate], the IC50 was 100 to 1000 nM. In turn, `CCCOC(=O)[C@H](C)NP(=O)(Oc1ccccc1)[C@H](F)c1ccc2sc(C(=O)N[C@H]3CC[C@H](N4CCC4)C[C@H]4CC[C@@H](C(=O)N5C[C@H](c6ccccc6)[C@@H](C#N)C56CC6)N4C3=O)cc2c1` (stereo partly drawn) [Compound 491, propyl (((S)-(2-(((3S,6S,9S,10aR)-9-(azetidin-1-yl)-3-((6S,7R)-7-cyano-6-phenyl-4-azaspiro[2.4]heptane-4-carbonyl)-5-oxodecahydropyrrolo [1,2-a]azocin-6-yl)carbamoyl)benzo [b]thiophen-5-yl)fluoromethyl) (phenoxy)phosphoryl)-L-alaninate] displayed an IC50 of less than 100 nM. As for `CCCOC(=O)[C@H](C)NP(=O)(Oc1ccccc1)[C@H](F)c1ccc2sc(C(=O)N[C@H]3CC[C@H](N4CCC4)C[C@H]4CC[C@@H](C(=O)N5C[C@@H](c6ccccc6)[C@H](C#N)C56CC6)N4C3=O)cc2c1` (stereo partly drawn) [Compound 492, propyl (((S)-(2-(((3S,6S,9S,10aR)-9-(azetidin-1-yl)-3-((6R,7S)-7-cyano-6-phenyl-4-azaspiro[2.4]heptane-4-carbonyl)-5-oxodecahydropyrrolo [1,2-a]azocin-6-yl)carbamoyl)benzo [b]thiophen-5-yl)fluoromethyl) (phenoxy)phosphoryl)-L-alaninate], the IC50 was less than 100 nM. `CCCOC(=O)[C@H](C)NP(=O)(Oc1ccccc1)C(F)c1ccc2sc(C(=O)N[C@H]3CCCC[C@H]4CC[C@@H](C(=O)N5C(=O)N(c6cc(=O)n(C)cc6F)C(=O)C56CC6)N4C3=O)cc2c1` (stereo partly drawn) [Compound 976, propyl ((fluoro(2-(((3S,6S,10aS)-3-(6-(5-fluoro-1-methyl-2-oxo-1,2-dihydropyridin-4-yl)-5,7-dioxo-4,6-diazaspiro [2.4]heptane-4-carbonyl)-5-oxodecahydropyrrolo [1,2-a]azocin-6-yl)carbamoyl)benzo [b]thiophen-5-yl)methyl)(phenoxy)phosphoryl)-L-alaninate] had an IC50 of more than 3000 nM. With `CCCOC(=O)[C@H](C)NP(=O)(Oc1ccccc1)C(F)c1ccc2sc(C(=O)N[C@H]3CCCC[C@H]4CC[C@@H](C(=O)N5C(=O)N(c6ccn(C)c(=O)c6)C(=O)C56CC6)N4C3=O)cc2c1` (stereo partly drawn) [Compound 977, propyl ((fluoro(2-(((3S,6S,10aS)-3-(6-(1-methyl-2-oxo-1,2-dihydropyridin-4-yl)-5,7-dioxo-4,6-diazaspiro[2.4]heptane-4-carbonyl)-5-oxodecahydropyrrolo [1,2-a]azocin-6-yl)carbamoyl)benzo [b]thiophen-5-yl)methyl)(phenoxy)phosphoryl)-L-alaninate], the IC50 lay in the range of 100 to 1000 nM. The compound `CCCOC(=O)[C@H](C)NP(=O)(Oc1ccccc1)C(F)c1ccc2sc(C(=O)N[C@H]3CCCC[C@H]4CC[C@@H](C(=O)N5C(=O)N(c6ccn(C(C)C)c(=O)c6)C(=O)C56CC6)N4C3=O)cc2c1` (stereo partly drawn) [Compound 981, propyl ((fluoro(2-(((3S,6S,10aS)-3-(6-(1-isopropyl-2-oxo-1,2-dihydropyridin-4-yl)-5,7-dioxo-4,6-diazaspiro [2.4]heptane-4-carbonyl)-5-oxodecahydropyrrolo [1,2-a]azocin-6-yl)carbamoyl)benzo [b]thiophen-5-yl)methyl)(phenoxy)phosphoryl)-L-alaninate] registered an IC50 of more than 3000 nM. As for `CCCOC(=O)[C@H](C)NP(=O)(Oc1ccccc1)C(F)c1ccc2sc(C(=O)N[C@H]3CCCC[C@H]4CC[C@@H](C(=O)N5C(=O)N(c6cccc7c6OC(F)(F)O7)C(=O)C56CC6)N4C3=O)cc2c1` (stereo partly drawn) [Compound 982, propyl (((2-(((3S,6S,10aS)-3-(6-(2,2-difluorobenzo[d][1, 3]dioxol-4-yl)-5,7-dioxo-4,6-diazaspiro [2.4]heptane-4-carbonyl)-5-oxodecahydropyrrolo [1,2-a]azocin-6-yl)carbamoyl)benzo [b]thiophen-5-yl)fluoromethyl) (phenoxy)phosphoryl)-L-alaninate], the IC50 is more than 3000 nM. Same read-out and setting: the figure for `CCCOC(=O)[C@H](C)NP(=O)(Oc1ccccc1)C(F)c1ccc2sc(C(=O)N[C@H]3CCCC[C@H]4CC[C@@H](C(=O)N5C(=O)N(c6cccnc6)C(=O)C5(C)C)N4C3=O)cc2c1` (stereo partly drawn) [Compound 989, propyl (((2-(((3S,6S,10aS)-3-(5,5-dimethyl-2,4-dioxo-3-(pyridin-3-yl)imidazolidine-1-carbonyl)-5-oxodecahydropyrrolo [1,2-a]azocin-6-yl)carbamoyl)benzo [b]thiophen-5-yl)fluoromethyl) (phenoxy)phosphoryl)-L-alaninate] is more than 3000 nM. The compound `CCCOC(=O)[C@H](C)NP(=O)(Oc1ccccc1)C(F)c1ccc2sc(C(=O)N[C@H]3CCCC[C@H]4CC[C@@H](C(=O)N5C(=O)N(c6cccnc6)C(=O)C56CCC6)N4C3=O)cc2c1` (stereo partly drawn) [Compound 992, propyl (((2-(((3S,6S,10aS)-3-(6,8-dioxo-7-(pyridin-3-yl)-5,7-diazaspiro[3.4]octane-5-carbonyl)-5-oxodecahydropyrrolo [1,2-a]azocin-6-yl)carbamoyl)benzo [b]thiophen-5-yl)fluoromethyl) (phenoxy)phosphoryl)-L-alaninate] gave an IC50 of 100 to 1000 nM.

These data come from patent US20250215029A1 (Recludix Pharma, Inc., priority 2022, published 2025).
